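Five compound concentrations were applied to cells in 96-well plates for 48 hours; endpoints were derived by simple linear interpolation of the resulting dose-response curve. GI50: concentration for 50% inhibition of growth. TGI: total growth inhibition.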
Legend:
Assay in all cases: NCI tumour cell line growth inhibition, 48 h
[1] = tested on: HCT-116 colon
[2] = tested on: HOP-62 NSCLC
[3] = tested on: HT29 colon
[4] = tested on: M14 melanoma
[5] = tested on: NCI-H23 lung
[6] = tested on: OVCAR-3 ovarian
[7] = tested on: RXF 393 renal
[8] = tested on: SK-MEL-5 melanoma
[9] = tested on: SN12C renal
[10] = tested on: COLO 205 colon

Work on COc1cc(OC)cc(-c2n/c(=C\c3c(O)[nH]c4ccc(Cl)cc34)cc3c2=Nc2ccccc2-3)c1 yielded a GI50 [1] of 1.9 µM, a TGI [1] of 3.43 µM and a GI50 [2] of 1.99 µM. It also gave a TGI [2] of 3.99 µM, a GI50 [3] of 2.72 µM and a TGI [3] of 6.22 µM. The GI50 [4] was 4.01 µM, the TGI [4] was 13.7 µM and the GI50 [5] was 2.34 µM. The TGI [5] was 6.06 µM, the GI50 [6] was 2.46 µM and the TGI [6] was 5.22 µM. The GI50 [7] was 6.05 µM, the TGI [7] was 21.4 µM and the GI50 [8] was 17.7 µM. The TGI [8] was 62.5 µM, the GI50 [9] was 3.73 µM and the TGI [9] was 17.2 µM.
Work on C/C(=C\Cc1cc(O)ccc1O)CCc1c(C)c(O)c(O)c(C=O)c1C yielded a TGI [10] of 34.4 µM, a TGI [1] of 40.3 µM and a TGI [3] of 64.8 µM. For the same compound, the TGI [4] was 77.3 µM, the TGI [5] was 44.7 µM and the TGI [6] was 43.2 µM. The TGI [7] was 43.8 µM, the TGI [8] was 30.2 µM and the TGI [9] was 77.8 µM.
In the case of COc1cc(/C=N\NC(=O)C[N+](C)(C)C)cc(OC)c1OC, the TGI [10] is reported as over 10 µM, the TGI [1] is reported as over 10 µM and the TGI [2] is reported as over 10 µM. For the same compound, the TGI [3] was over 10 µM, the TGI [4] was over 10 µM and the TGI [5] was over 10 µM. For the same compound, the TGI [6] was over 10 µM, the TGI [8] was over 10 µM and the TGI [9] was over 10 µM.
C[C@@H]1CC[C@@H](C)[C@](C)(CCc2ccoc2)C/C=C\C=C/1C(=O)O gave a TGI [10] of over 50 µM, a TGI [1] of over 50 µM and a TGI [2] of over 50 µM. It also gave a TGI [3] of over 50 µM, a TGI [4] of over 50 µM and a TGI [5] of over 50 µM. It also gave a TGI [6] of over 50 µM, a TGI [7] of over 50 µM and a TGI [8] of over 50 µM. It also gave a TGI [9] of over 50 µM.
CC1C2CC(C/C2=N/O)C1(C)C (stereo not given) gave a TGI [10] of over 100 µM, a TGI [1] of over 100 µM and a TGI [2] of over 100 µM. For the same compound, the TGI [3] was over 100 µM, the TGI [4] was over 100 µM and the TGI [5] was over 100 µM. It also gave a TGI [6] of over 100 µM, a TGI [7] of over 100 µM and a TGI [8] of over 100 µM. For the same compound, the TGI [9] was over 100 µM.
For CC(=O)CC(C)(C)NC(=O)[C@@]1(O)CC[C@H]2[C@@H]3CCC4=CC(=O)CC[C@@H]4[C@H]3CC[C@@]21C, the TGI [10] was over 100 µM, the TGI [1] was over 100 µM and the TGI [2] was over 100 µM. It also gave a TGI [3] of over 100 µM, a TGI [4] of over 100 µM and a TGI [5] of over 100 µM. For the same compound, the TGI [6] was over 100 µM, the TGI [7] was over 100 µM and the TGI [8] was over 100 µM. The TGI [9] was over 100 µM.
Cc1cc(C)c2c(=N)c3ccccc3n(CCCCCCO)c2n1 gave a TGI [10] of 2.84 µM, a TGI [2] of 23.6 µM and a TGI [3] of 3.93 µM. It also gave a TGI [4] of 16.6 µM, a TGI [5] of 6.69 µM and a TGI [6] of 25.9 µM. For the same compound, the TGI [7] was 14.2 µM, the TGI [8] was 8.16 µM and the TGI [9] was 7.55 µM.
Compound O=C(N/N=C/c1ccc(Cl)cc1)c1cc(I)cc(I)c1O has a TGI [10] of over 100 µM, a TGI [1] of over 100 µM and a TGI [2] of over 100 µM. It also gave a TGI [3] of over 100 µM, a TGI [4] of over 100 µM and a TGI [5] of over 100 µM. For the same compound, the TGI [6] was over 100 µM, the TGI [7] was over 100 µM and the TGI [8] was over 100 µM. It also gave a TGI [9] of over 100 µM.
O=C1CCC2(O)C3Cc4ccc(Oc5nnnn5-c5ccccc5)c5c4C2(CCN3CC2CC2)C1O5 (stereo not given) was tested, and the TGI [10] was 32.9 µM, the TGI [1] was over 100 µM and the TGI [2] was over 100 µM. The TGI [3] was 68.8 µM, the TGI [4] was 33.5 µM and the TGI [5] was over 100 µM. For the same compound, the TGI [6] was over 100 µM, the TGI [7] was over 100 µM and the TGI [8] was 25.9 µM. It also gave a TGI [9] of over 100 µM.
Work on C/C=C/[C@H]1O[C@@](O)([C@@H](C)[C@H](O)[C@H](C)[C@H]2OC(=O)/C(OC)=C/C(C)=C/[C@@H](C)[C@@H](O)[C@@H](CC)[C@@H](O)[C@H](C)C/C(C)=C/C=C/[C@@H]2OC)C[C@H](OC2CC(O)C(OC(N)=O)C(C)O2)[C@@H]1C (stereo not given in full) yielded a TGI [10] of 4.91 µM, a TGI [1] of 14 µM and a TGI [2] of 1.11 µM. For the same compound, the TGI [3] was 1.59 µM, the TGI [4] was 0.0387 µM and the TGI [5] was 26.7 µM. The TGI [6] was 17.2 µM, the TGI [7] was 37 µM and the TGI [8] was 0.231 µM. The TGI [9] was 23.5 µM.
CCNc1ncnc2c1nnn2CC was tested, and the TGI [10] was over 100 µM, the TGI [1] was over 100 µM and the TGI [2] was over 100 µM. The TGI [3] was over 100 µM, the TGI [4] was over 100 µM and the TGI [5] was over 100 µM. The TGI [6] was over 100 µM, the TGI [7] was over 100 µM and the TGI [8] was over 100 µM. The TGI [9] was over 100 µM.
Compound Cc1cc(O)ccc1C1(c2ccc(F)cc2)OC(=O)c2ccccc21 (stereo not given) has a TGI [10] of 11.2 µM, a TGI [1] of 12.6 µM and a TGI [2] of 19.7 µM. The TGI [3] was 18 µM, the TGI [4] was 27.1 µM and the TGI [5] was 3.27 µM. For the same compound, the TGI [6] was 0.882 µM, the TGI [7] was 3.33 µM and the TGI [8] was 24.3 µM. For the same compound, the TGI [9] was 8.23 µM.
For COc1ccc2c(-c3ccc(OCCN(C)C)cc3)c(Oc3ccc(Cl)cc3)c(=O)oc2c1, the TGI [10] was 10.5 µM, the TGI [1] was 8.49 µM and the TGI [2] was over 100 µM. For the same compound, the TGI [3] was over 46.7 µM, the TGI [4] was 3.23 µM and the TGI [5] was over 54.2 µM. It also gave a TGI [6] of 21 µM, a TGI [7] of 12.4 µM and a TGI [8] of 3.19 µM. It also gave a TGI [9] of over 53.3 µM.
With Nc1ccc(-c2nc3ccc(F)cc3s2)cc1 the TGI [10] was 33.2 µM, the TGI [1] was over 100 µM and the TGI [2] was 90.8 µM. It also gave a TGI [3] of over 100 µM, a TGI [4] of over 100 µM and a TGI [5] of over 100 µM. It also gave a TGI [6] of 64.4 µM, a TGI [8] of 37.8 µM and a TGI [9] of over 100 µM.
For CCCCCn1c(=O)c2c(=O)[nH][nH]c2c2ccccc21, the TGI [10] was over 100 µM, the TGI [1] was over 100 µM and the TGI [2] was over 100 µM. For the same compound, the TGI [3] was over 100 µM, the TGI [5] was over 100 µM and the TGI [6] was over 100 µM. For the same compound, the TGI [7] was over 100 µM, the TGI [8] was over 100 µM and the TGI [9] was over 100 µM.
In the case of CNC(=S)N/N=C(\C)c1nc2ncccc2[nH]1, the TGI [10] is reported as over 100 µM, the TGI [1] is reported as over 100 µM and the TGI [2] is reported as over 100 µM. It also gave a TGI [3] of over 100 µM, a TGI [4] of over 100 µM and a TGI [6] of 75.5 µM. The TGI [7] was over 100 µM, the TGI [8] was over 100 µM and the TGI [9] was over 100 µM.
In the case of C=C(Br)CNCC(=C)Br, the TGI [10] is reported as over 100 µM, the TGI [1] is reported as over 100 µM and the TGI [2] is reported as over 100 µM. For the same compound, the TGI [3] was over 100 µM, the TGI [4] was over 100 µM and the TGI [5] was over 100 µM. The TGI [6] was over 100 µM, the TGI [7] was over 100 µM and the TGI [8] was over 100 µM. It also gave a TGI [9] of over 100 µM.
Work on CCOC(=O)c1c(N2CCOCC2)[nH]c(=O)c(C(c2cccs2)c2c(O)c(C(=O)OCC)c(N3CCOCC3)[nH]c2=O)c1O yielded a TGI [10] of over 100 µM, a TGI [1] of over 100 µM and a TGI [2] of over 100 µM. The TGI [3] was over 100 µM, the TGI [4] was over 100 µM and the TGI [5] was over 100 µM. The TGI [6] was over 100 µM, the TGI [7] was over 100 µM and the TGI [8] was over 100 µM. It also gave a TGI [9] of over 100 µM.
O=C(O)c1cc(Cl)cc2c1NC1(N2)C(=O)Nc2ccccc21 (stereo not given) gave a TGI [10] of over 100 µM, a TGI [1] of over 100 µM and a TGI [2] of over 100 µM. The TGI [3] was over 100 µM, the TGI [4] was over 100 µM and the TGI [5] was over 100 µM. It also gave a TGI [6] of over 100 µM, a TGI [7] of over 100 µM and a TGI [8] of over 100 µM. It also gave a TGI [9] of over 100 µM.
Compound CC(=O)c1ccc(N2CCN(C3=CC(=O)c4c(O)ccc(O)c4C3=O)CC2)cc1 has a TGI [10] of over 100 µM, a TGI [1] of over 100 µM and a TGI [2] of over 100 µM. For the same compound, the TGI [3] was over 100 µM, the TGI [4] was over 100 µM and the TGI [5] was over 100 µM. For the same compound, the TGI [6] was over 100 µM and the TGI [7] was over 100 µM.
